Data as given in publication PMC6435658, “Investigation into the Molecular Mechanisms underlying the Anti-proliferative and Anti-tumorigenesis activities of Diosmetin against HCT-116 Human Colorectal Cancer” (Scientific Reports, 2019).
Values after ≈ are worked out from the molar mass of the structure shown.

Tests used:
NF-κB = assay: Translocation of NF-κB induced by TNF-α; format: cell-based, human; details: HCT-116 stimulated with TNF-α, vs untreated group
Method: Confocal microscope was used to detect the suppressive effect of Dis on translocation of NF-κB from cytoplasm to nucleus induced by TNF-α (Santa Cruz, CA, USA) using cellomics nucleus factor-κB (NF-κB) activation kit (Thermo Scientific™, Pittsburgh, PA, USA). HCT-116 cells were seeded and treated with Dis at different time points in 24 well-plate covered with cover slide. An amount of 150 ng/ml of TNF-α was used as a stimulator for 24 h. Cells were then fixed and stained according to the manufacturer’s instructions. Translocation of NF-κB was investigated via confocal Leica TCS SP5 II microscope (Leica Microsystems, Mannheim, Germany) and intensity of NF-κB was measured by using LAS X software.

caspase 9 = assay: Caspase-Glo 9 bioluminescent assay; format: cell-based, human; details: HCT-116, 24 h, 48 h, 72 h, time dependent
Method: (§1) To assess the effect of Dis on caspase cascades in treated cells, activities of caspase-Glo 3/7, caspase-Glo 8 and caspase-Glo 9 assays (Promega, Madison, WI, USA) were performed. Briefly, HCT-116 cells with the density of 10^4 cells/well were seeded in 96 well-plates. Cells were treated with Dis for 24 h, 48 h and 72 h. This assay was performed in triplicates for each time point. A total of 6 wells were preserved for samples without cells but with media and reagents as the blank samples, and for the untreated cells as negative control. At the end of incubation time, 100 µl caspase-glo mixture were added to each well and incubated for 1 h in the dark according to the manufacturer’s instructions. Optical density was measured via multimode microplate reader (Tecan Infinite, Männedorf, Switzerland).

HT-29 cells = assay: MTT cytotoxicity assay, HT-29; format: cell-based, human; details: for IC50: Homo sapiens, MTT
Method: [Worded in the source for another cell line; this cell line is reported under the same test.] (§2) Cytotoxicity property of Dis against HCT-116 and CCD-841 cells were measured by MTT assay as described by Mossman[77]. Briefly, cells were treated with different concentration of Dis and 5-Fu (positive control) with serial dilution factor of 2 for 8 concentrations in 96 well-plate for different time points (24 h, 48 h and 72 h). Subsequently at the end of each time point 20 µl of MTT (5 mg/ml, Affymetrix,Cleveland, OH, USA) were added to each well followed by 4 h incubation. The solutions were aspirated after 4 h and 100 µl of DMSO were added to each well. Absorbance for each well was read at 570 nm as measured by using microplate reader (Tecan Infinite multimode, Männedorf, Switzerland). Cytotoxicity (cell death) was measured by using the following formula: Celldeath(%)=sampleOD−controlOD/controlOD100
(§3) This assay was performed in triplicates in three independent experiments. The cytotoxicity property of Dis was presented as IC50 value.

HCC = system: HCC; parameters: method as in PMID 19424633, PMID 27176768, PMID 26847170, PMID 20183323; details: 24 h treatment, ref [10],[13],[15],[47]; cited from earlier work
SK-Hep-1 = system: SK-Hep-1; parameters: method as in PMID 19424633, PMID 27176768, PMID 26847170, PMID 20183323; details: SK-Hep-1, 24 h; ref [10],[13],[15],[47]; cited from earlier work
CCD-841 cells = assay: MTT cytotoxicity assay, CCD-841 normal colon cells; format: cell-based; details: Homo sapiens, CCD-841 non cancerous cells
Method: as §2, §3

caspase 3/7 = assay: Caspase-Glo 3/7 bioluminescent assay; format: cell-based, human; details: HCT-116, 24 h, 48 h, 72 h, time dependent
Method: as §1

caspase 8 = assay: Caspase-Glo 8 bioluminescent assay; format: cell-based, human; details: HCT-116, 24 h, 48 h, 72 h, time dependent
Method: as §1

HCT-116 cells [1] = assay: Human apoptosis protein array (proteome profiler); format: cell-based; details: vs control
Method: Apoptosis protein expression profiling was performed using human apoptosis array (R&D Systems, Minneapolis, MN, USA) according to the manufacturer’s protocol. In brief, 2 × 10^6 HCT-116 cells were seeded and treated with Dis in 75 cm^2 flask and incubated for 48 h. Cells were harvested and lysed via lysis buffer reagent and was quantified using Pierce BCA protein assay kit (Thermo Scientific™, Pittsburgh, PA, USA). The membrane provided was blocked in blocking solution reagent and treated overnight with cell lysates protein. The membrane was washed and subsequently incubated with detection antibody cocktail and streptavidin horseradish peroxidase-conjugated. Chemiluminescent reagents were added to the membrane and then exposed to X-ray film to detect the protein expression levels in treated cells as compared to untreated cells. Images were quantified via ImageJ software (NIH, USA). The list of investigated proteins is provided as supplementary data (Table S2).

HCT-116 cells [2] = assay: MTT cytotoxicity assay, HCT-116; format: cell-based, human; details: for IC50: Homo sapiens, MTT
Method: as §2, §3

HCT-116 cells [3] = assay: Annexin-V-FITC apoptosis assay; format: cell-based, human
Method: Inductions of early and late stages of apoptosis by Dis were investigated using Annexin-V-FITC assay according to the manufacturer’s instructions (BD Biosciences, San Jose, CA, USA). Briefly, 10^6 HCT-116 cells were seeded in 25 cm^2 flask followed by treatment with Dis for 24 h, 48 h and 72 h. Treated cells were harvested and washed twice with cold PBS and suspended in binding buffer followed by transferred of 10^5 cells to the 6 ml polystyrene round-bottom FACS tubes. Cells were incubated with 5 µl of PI and 5 µl of Annexin-V-FITC and introduced to the FACSCanto™II instrument (BD, San Jose, CA, USA).

Colo205 = system: Colo205; parameters: method as in PMID 19424633, PMID 27176768, PMID 26847170, PMID 20183323; details: Colo205, 24 h treatment; ref [10],[13],[15],[47]; cited from earlier work

SMILES: COc1ccc(-c2cc(=O)c3c(O)cc(O)cc3o2)cc1O [Dis, Diosmetin]
- translocation of NF-ƙB (NF-κB): significantly reduced
- cleavage of caspase 9 (caspase 9): significantly increased
- IC50 (HT-29 cells; HT-29, 24 h): 44.5 ± 1.75 µg/mL (≈ 148 µM)
- IC50 (HT-29 cells; HT-29, 48 h): 17.6 ± 0.61 µg/mL (≈ 58.4 µM)
- IC50 (HT-29 cells; HT-29, 72 h): 11.46 ± 0.1 µg/mL (≈ 38.2 µM)
- Selectivity Index (SI) (HT-29 cells; IC50 CCD-841 / IC50 HT-29, 24 h): 5.31
- Selectivity Index (SI) (HT-29 cells; IC50 CCD-841 / IC50 HT-29, 48 h): 2.96
- Selectivity Index (SI) (HT-29 cells; IC50 CCD-841 / IC50 HT-29, 72 h): 3.53
- IC50 (HCC): 50 µg/mL (≈ 167 µM)
- IC50 (SK-Hep-1): 100 µg/mL (≈ 333 µM)
- IC50 (CCD-841 cells; 24 h): 236 ± 9.99 µg/mL (≈ 788 µM)
- IC50 (CCD-841 cells; 48 h): 51.95 ± 0.11 µg/mL (≈ 173 µM)
- IC50 (CCD-841 cells; 72 h): 40.5 ± 9.99 µg/mL (≈ 135 µM)
- cleavage of caspase 3/7 (caspase 3/7): significantly increased
- cleavage of caspase 8 (caspase 8): significantly increased
- Protein expression of caspase 3 cleavage, fold change (HCT-116 cells [1]; HCT-116, 3.58 µg/ml Dis, 48 h): 2.61
- Protein expression of pro-caspase 3, fold change (HCT-116 cells [1]; HCT-116, 3.58 µg/ml Dis, 48 h): 0.75
- Hsp27 expression, gene and protein levels (HCT-116 cells [1]; HCT-116, 48 h): significantly decreased
- expression of FADD (HCT-116 cells [1]; HCT-116, 48 h): significantly increased
- protein expression level of Bax (HCT-116 cells [1]; HCT-116, 48 h): accelerated
- protein expression level of Cytochrome C (HCT-116 cells [1]; HCT-116, 48 h): accelerated
- protein expression of Survivin (HCT-116 cells [1]; HCT-116, 48 h): significantly decreased
- IC50 (HCT-116 cells [2]; HCT-116, 24 h): 5.56 ± 0.48 µg/mL (≈ 18.5 µM)
- IC50 (HCT-116 cells [2]; HCT-116, 48 h): 3.58 ± 0.58 µg/mL (≈ 11.9 µM)
- IC50 (HCT-116 cells [2]; HCT-116, 72 h): 3.41 ± 0.64 µg/mL (≈ 11.4 µM)
- Selectivity Index (SI) (HCT-116 cells [2]; IC50 CCD-841 / IC50 HCT-116, 24 h): 42.53
- Selectivity Index (SI) (HCT-116 cells [2]; IC50 CCD-841 / IC50 HCT-116, 48 h): 14.51
- Selectivity Index (SI) (HCT-116 cells [2]; IC50 CCD-841 / IC50 HCT-116, 72 h): 11.88
- Late apoptosis (HCT-116 cells [3]; HCT-116, 24 h): 18 ± 3.6%
- Late apoptosis (HCT-116 cells [3]; HCT-116, 48 h): 26.3 ± 3.6%
- Late apoptosis (HCT-116 cells [3]; HCT-116, 72 h): 53.15 ± 4.35%
- population of cells in early apoptosis (HCT-116 cells [3]; HCT-116, 72 h of treatment): 7.7 ± 0%
- IC50 (Colo205): 29 µg/mL (≈ 96.6 µM)
